From patent publication US20230183323A1 (BROWN UNIVERSITY, priority 2020, published 2023)
Where a name gives a salt, the structure may show the parent alone.

Assays:
[1] = target: CDK2 (Homo sapiens, UniProt P24941); details: cited from earlier work
[2] = target: CDK3 (Homo sapiens, UniProt Q00526); details: cited from earlier work
[3] = target: CDK6 (Homo sapiens, UniProt Q00534); parameters: key to the marks not given beside the values; details: cited from earlier work
[4] = target: CDK1 (Homo sapiens, UniProt P06493); details: cited from earlier work
[5] = target: CDK4 (Homo sapiens, UniProt P11802); details: cited from earlier work
[6] = target: CDK7 (Homo sapiens, UniProt P50613); parameters: key: + is used to indicate the potency of the inhibitor; ++++ > +++ > ++ > +; + is used to indicate the potency of the inhibitor; ++++ > +++ > ++ > +; + is used to indicate the potency of the inhibitor; ++++ > +++ > ++ > +; + is used to indicate the potency of the inhibitor; ++++ > +++ > ++ > +; ◯ refers to compounds with inhibitory effects on the related isoform, but without specific value; details: cited from earlier work
[7] = system: serine phosphorylation of CHI3L1 in U87 cells; test: Co-IP/Immunoblot of CHI3L1 phosphorylation in U87 cells; format: cell-based; details: flavopiridol 50 nM unless otherwise indicated, time-dependent and dose-dependent
Description: U87 cells that endogenously express all components of chitosome were subjected to Co-IP/Immunoblot assays after Pan-CDK inhibitor flavopiridol treatment. Flavopiridol was used at 50 nM unless otherwise indicated. Hr, hours.

[8] = system: ACE2, TMPRSS2, CTSL, and FURIN mRNA in Calu-3 lung epithelial cells; test: RT-PCR of basal and CHI3L1 regulated expression in Calu-3 cells transfected with CHI3L1 cDNA, with flavopiridol; format: cell-based, human; details: 24 hours
Description: After transfection of the cells with empty vector (pcDNA) or full length CHI3L1 cDNA, the Calu-3 cells were incubated with flavopiridol (25 nM) or its vehicle control for 24 hours. Levels of mRNA encoding ACE2 (top left), TMPRSS2 (top right), CTSL (bottom left), and FURIN (bottom right) were assessed via RT-PCR. *p<0.05; **p<0.01 (Student's t-test).
(§1) Total cellular RNA was obtained using TRIzol reagent (ThermoFisher Scientific) followed by RNA extraction using RNeasy Mini Kit (Qiagen, Germantown, Md.) according to the manufacturer's instructions. mRNA was measured and used for real time (RT)-PCR as described previously.^55,56 The primer sequences used in these studies are summarized in Table 1. Ct values of the test genes were normalized to the internal housekeeping gene β-actin.
The next study assessed whether the inhibition of CHI3L1 phosphorylation wound result in similar effects observed with CHI3L1 inhibitors on the levels of mRNA encoding ACE2 and spike activating proteases (SAPs), namely FURIN, TMPRSS2, and CTSL, in Calu-3 cells (described in Example 1).

[9] = target: CDK9 (Homo sapiens, UniProt P50750); parameters: key: + is used to indicate the potency of the inhibitor; ++++ > +++ > ++ > +; + is used to indicate the potency of the inhibitor; ++++ > +++ > ++ > +; + is used to indicate the potency of the inhibitor; ++++ > +++ > ++ > +; + is used to indicate the potency of the inhibitor; ++++ > +++ > ++ > +; ◯ refers to compounds with inhibitory effects on the related isoform, but without specific value; details: cited from earlier work
[10] = target: CDK8 (Homo sapiens, UniProt P49336); parameters: key: + is used to indicate the potency of the inhibitor; ++++ > +++ > ++ > +; + is used to indicate the potency of the inhibitor; ++++ > +++ > ++ > +; + is used to indicate the potency of the inhibitor; ++++ > +++ > ++ > +; + is used to indicate the potency of the inhibitor; ++++ > +++ > ++ > +; ◯ refers to compounds with inhibitory effects on the related isoform, but without specific value; details: cited from earlier work
[11] = system: ACE2, TMPRSS2, and CTSL mRNA in normal human small airway epithelial cells (HSAEC); test: qRT-PCR of mRNA levels in HSAEC incubated with rhCHI3L1; format: cell-based; details: rhCHI3L1 500 ng/mL, 24 hours
Description: as §1
In the present study, normal HSAEC were incubated with 0, 100 ng/mL, or 500 ng/mL of rhCHI3L1 for 24 hours at 37° C. The levels of mRNA encoding ACE2, TMPRSS2, and CTSL were assessed via qRT-PCR and expressed in relationship to GAPDH controls.

[12] = system: ACE2, FURIN, TMPRSS2, and CTSL mRNA in Calu-3 lung epithelial cells; test: RT-PCR of basal and rhCHI3L1 regulated expression in Calu-3 cells with FRG or KSM; format: cell-based, human; details: Calu-3 cells, rhCHI3L1 250 ng/mL, 24 hours
Description: Calu-3 cells were incubated with vehicle or rhCHI3L1 for 24 hours in the presence of KSM (250 ng/mL) or its vehicle control (PBS). Levels of mRNA encoding ACE2 (top left), FURIN (top right), TMPRSS2 (bottom left), and CTSL (bottom right) were assessed via RT-PCR. KSM diminished the levels of basal ACE2 expression and potently ameliorated the ability of rhCHI3L1 to stimulate ACE2 mRNA accumulation.
as §1
Calu-3 cells were incubated with vehicle or 250 ng/mL rhCHI3L1 for 24 hours in the presence of 250 ng/mL FRG or its isotype control (isotype) at 37° C. Levels of mRNA encoding ACE2, FURIN, TMPRSS2, and CTSL were assessed via RT-PCR.
Kasugamycin (KSM) is an inhibitor of CHI3L1 and chitinase 1. The present study assessed the effects of KSM on the levels of mRNA encoding ACE2, FURIN, TMPRSS2, and CTSL in Calu-3 cells.

[13] = system: ACE2, TMPRSS2, and CTSL mRNA in A549 cells; test: qRT-PCR of mRNA levels in A549 cells incubated with rhCHI3L1; format: cell-based, human; details: 24 hr
Description: as §1
In the first study, A549 cells were incubated with rhCHI3L1 from a commercial source (R&D Inc.) and rhCHI3L1 generated at Brown University (Brown). The cells were incubated for 24 hr with stimulation of rhCHI3L1 (500 ng/mL) at 37° C. mRNA was then extracted and the levels of mRNA for ACE2 and CTSL were evaluated by real time qRT-PCR and compared to vehicle controls. Levels were expressed in relationship to GAPDH controls.
In the next study, A549 cells were incubated with 0, 250 ng/mL, or 500 ng/mL of rhCHI3L1 for 24 hr with stimulation of rhCHI3L1 at 37° C. mRNA was then extracted and the levels of mRNA encoding ACE2, TMPRSS2, and CTSL were assessed via qRT-PCR.

[14] = system: spike protein (S)-containing pseudovirus (D614 and G614 variants); format: cell-based; details: Calu-3 cells, rCHI3L1 24 hours before pseudovirus
[15] = Calu-3 cells, pcDNA or CHI3L1 cDNA, flavopiridol 25 nM

CDK7, sequence (P51946 whole entry, canonical isoform): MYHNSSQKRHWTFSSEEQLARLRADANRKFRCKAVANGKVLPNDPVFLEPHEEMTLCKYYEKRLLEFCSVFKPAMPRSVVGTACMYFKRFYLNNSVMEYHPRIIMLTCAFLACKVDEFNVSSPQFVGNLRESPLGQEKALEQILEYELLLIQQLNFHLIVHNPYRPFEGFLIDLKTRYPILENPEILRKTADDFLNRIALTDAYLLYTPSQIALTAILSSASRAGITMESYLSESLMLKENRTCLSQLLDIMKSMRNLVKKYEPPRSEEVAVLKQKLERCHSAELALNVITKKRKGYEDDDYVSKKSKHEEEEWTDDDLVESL
CDK7, sequence (P50613 whole entry, canonical isoform): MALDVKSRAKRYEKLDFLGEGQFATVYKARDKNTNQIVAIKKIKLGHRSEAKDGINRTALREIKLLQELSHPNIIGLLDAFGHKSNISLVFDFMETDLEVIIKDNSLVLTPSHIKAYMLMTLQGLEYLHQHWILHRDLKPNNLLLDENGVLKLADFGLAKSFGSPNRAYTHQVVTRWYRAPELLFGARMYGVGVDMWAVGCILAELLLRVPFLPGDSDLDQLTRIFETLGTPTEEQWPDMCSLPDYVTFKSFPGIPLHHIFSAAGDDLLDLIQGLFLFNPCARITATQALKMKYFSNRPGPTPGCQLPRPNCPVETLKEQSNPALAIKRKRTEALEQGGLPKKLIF
CDK7, sequence (P51948 whole entry, further chain, canonical isoform): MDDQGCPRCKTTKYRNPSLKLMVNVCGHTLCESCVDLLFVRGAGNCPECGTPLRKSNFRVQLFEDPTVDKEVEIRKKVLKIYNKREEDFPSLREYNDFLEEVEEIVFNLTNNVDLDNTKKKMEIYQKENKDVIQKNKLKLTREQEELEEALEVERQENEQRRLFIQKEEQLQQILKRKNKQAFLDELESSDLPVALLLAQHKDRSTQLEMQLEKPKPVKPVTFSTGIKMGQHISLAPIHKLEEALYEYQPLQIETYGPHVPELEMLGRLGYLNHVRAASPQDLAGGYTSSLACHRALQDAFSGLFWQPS
CDK4, sequence (P11802 whole entry, species assumed, canonical isoform): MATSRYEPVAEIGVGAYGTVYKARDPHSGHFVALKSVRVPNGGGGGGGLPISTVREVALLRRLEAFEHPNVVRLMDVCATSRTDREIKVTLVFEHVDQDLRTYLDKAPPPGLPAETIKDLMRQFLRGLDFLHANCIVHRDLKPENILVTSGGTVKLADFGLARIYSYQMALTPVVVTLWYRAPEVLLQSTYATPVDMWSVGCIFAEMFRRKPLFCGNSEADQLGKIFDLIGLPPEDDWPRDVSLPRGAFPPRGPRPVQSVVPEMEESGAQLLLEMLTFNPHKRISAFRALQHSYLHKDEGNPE
CDK4, sequence (P24385 whole entry partner, species assumed, canonical isoform): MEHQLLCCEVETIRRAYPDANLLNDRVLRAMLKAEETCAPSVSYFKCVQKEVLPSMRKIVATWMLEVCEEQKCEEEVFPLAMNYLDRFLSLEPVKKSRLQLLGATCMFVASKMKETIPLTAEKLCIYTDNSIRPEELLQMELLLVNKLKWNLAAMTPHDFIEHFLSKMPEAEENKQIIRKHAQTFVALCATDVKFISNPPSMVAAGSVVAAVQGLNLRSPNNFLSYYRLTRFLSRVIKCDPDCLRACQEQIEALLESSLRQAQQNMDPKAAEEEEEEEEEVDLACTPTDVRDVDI
CDK6, sequence (Q00534 whole entry): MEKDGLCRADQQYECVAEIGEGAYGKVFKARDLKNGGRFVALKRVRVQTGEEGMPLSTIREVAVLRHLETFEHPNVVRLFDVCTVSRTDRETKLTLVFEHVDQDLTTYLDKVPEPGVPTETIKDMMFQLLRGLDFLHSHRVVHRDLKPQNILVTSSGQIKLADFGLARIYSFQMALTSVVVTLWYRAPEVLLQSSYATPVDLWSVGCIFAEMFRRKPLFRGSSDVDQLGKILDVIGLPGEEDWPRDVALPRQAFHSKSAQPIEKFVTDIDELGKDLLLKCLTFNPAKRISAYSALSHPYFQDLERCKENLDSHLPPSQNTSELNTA
CDK1, sequence (P06493 whole entry, species assumed): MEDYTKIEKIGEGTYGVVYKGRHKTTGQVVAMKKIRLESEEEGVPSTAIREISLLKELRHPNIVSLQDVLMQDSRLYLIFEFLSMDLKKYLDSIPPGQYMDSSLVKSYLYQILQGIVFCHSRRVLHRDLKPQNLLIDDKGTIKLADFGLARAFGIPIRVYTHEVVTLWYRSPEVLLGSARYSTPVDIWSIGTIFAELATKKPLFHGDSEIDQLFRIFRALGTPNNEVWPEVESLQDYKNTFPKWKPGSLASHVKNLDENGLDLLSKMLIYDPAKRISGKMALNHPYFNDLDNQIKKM
CDK1, sequence (P14635 whole entry partner, species assumed): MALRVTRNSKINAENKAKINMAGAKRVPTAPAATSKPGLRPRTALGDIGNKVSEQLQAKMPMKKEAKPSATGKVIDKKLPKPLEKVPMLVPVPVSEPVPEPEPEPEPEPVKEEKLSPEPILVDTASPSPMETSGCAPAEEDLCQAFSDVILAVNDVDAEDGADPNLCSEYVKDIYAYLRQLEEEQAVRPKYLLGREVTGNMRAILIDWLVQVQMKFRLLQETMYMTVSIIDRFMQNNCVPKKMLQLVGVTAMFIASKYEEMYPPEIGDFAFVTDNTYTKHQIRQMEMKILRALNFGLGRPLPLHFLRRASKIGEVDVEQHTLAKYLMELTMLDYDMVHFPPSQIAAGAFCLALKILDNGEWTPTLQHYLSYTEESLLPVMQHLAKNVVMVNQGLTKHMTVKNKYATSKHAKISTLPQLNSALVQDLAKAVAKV
CDK9, sequence (O60563 whole entry, canonical isoform): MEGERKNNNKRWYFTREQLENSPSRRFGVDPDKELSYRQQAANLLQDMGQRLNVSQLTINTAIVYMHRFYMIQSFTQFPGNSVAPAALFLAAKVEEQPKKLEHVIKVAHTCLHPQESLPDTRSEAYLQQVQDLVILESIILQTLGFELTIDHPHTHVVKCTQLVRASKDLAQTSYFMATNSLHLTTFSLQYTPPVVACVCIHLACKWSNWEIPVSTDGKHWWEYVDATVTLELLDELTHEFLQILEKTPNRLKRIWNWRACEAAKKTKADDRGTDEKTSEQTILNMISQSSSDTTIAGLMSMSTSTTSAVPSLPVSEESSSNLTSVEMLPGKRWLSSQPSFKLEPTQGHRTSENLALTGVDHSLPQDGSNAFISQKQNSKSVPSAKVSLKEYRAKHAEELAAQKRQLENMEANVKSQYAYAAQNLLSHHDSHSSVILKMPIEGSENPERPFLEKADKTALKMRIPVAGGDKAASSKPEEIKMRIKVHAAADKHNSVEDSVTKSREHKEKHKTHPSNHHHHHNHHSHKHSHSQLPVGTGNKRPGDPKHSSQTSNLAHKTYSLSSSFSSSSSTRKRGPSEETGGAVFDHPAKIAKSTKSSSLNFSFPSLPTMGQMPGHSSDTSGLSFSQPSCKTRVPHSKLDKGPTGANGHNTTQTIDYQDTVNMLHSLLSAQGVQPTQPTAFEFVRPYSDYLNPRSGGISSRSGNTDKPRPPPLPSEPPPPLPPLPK
CDK9, sequence (P50750 whole entry, canonical isoform): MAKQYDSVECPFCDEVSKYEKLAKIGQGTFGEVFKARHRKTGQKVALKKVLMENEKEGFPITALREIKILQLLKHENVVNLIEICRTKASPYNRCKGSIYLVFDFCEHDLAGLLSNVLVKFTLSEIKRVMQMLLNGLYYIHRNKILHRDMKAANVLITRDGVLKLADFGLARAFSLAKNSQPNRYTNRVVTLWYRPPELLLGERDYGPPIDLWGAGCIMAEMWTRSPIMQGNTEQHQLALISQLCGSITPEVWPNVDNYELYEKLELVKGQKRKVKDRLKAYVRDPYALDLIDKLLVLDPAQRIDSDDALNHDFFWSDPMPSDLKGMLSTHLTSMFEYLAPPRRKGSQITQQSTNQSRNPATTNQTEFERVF
CDK3, sequence (Q00526 whole entry): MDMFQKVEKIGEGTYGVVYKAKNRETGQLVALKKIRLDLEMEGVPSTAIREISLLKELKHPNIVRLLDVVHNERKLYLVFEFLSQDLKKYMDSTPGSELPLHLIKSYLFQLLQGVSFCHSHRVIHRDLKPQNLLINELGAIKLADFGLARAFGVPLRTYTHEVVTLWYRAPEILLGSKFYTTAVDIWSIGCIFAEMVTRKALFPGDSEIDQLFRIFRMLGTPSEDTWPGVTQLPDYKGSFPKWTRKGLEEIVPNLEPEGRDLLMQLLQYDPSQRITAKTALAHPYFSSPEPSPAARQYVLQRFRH
CDK3, sequence (P24864 whole entry, further chain): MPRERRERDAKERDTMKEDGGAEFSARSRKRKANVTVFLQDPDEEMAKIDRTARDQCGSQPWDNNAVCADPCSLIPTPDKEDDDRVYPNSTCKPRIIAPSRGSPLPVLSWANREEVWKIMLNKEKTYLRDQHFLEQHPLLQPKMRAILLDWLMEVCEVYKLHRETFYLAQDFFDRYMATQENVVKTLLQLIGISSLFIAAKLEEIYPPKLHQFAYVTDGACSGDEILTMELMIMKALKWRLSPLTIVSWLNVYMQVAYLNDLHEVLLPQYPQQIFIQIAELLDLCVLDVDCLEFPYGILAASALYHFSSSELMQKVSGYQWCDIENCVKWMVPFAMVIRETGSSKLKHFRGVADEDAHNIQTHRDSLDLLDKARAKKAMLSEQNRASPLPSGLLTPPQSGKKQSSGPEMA

CN1CC[C@H](c2c(O)cc(O)c3c(=O)cc(-c4ccccc4Cl)oc23)[C@H](O)C1 [Flavopiridol HCl, Flavopiridol Hydrochloride]
Inhibitory potency CDK2 [1]: +++
Inhibitory potency CDK3 [2]: +
Inhibitory potency CDK6 [3]: +++
Inhibitory potency CDK1 [4]: +++
Inhibitory potency CDK4 [5]: +++
Inhibitory potency CDK7 [6]: +

CN1CC[C@H](c2c(O)cc(O)c3c(=O)cc(-c4ccccc4Cl)oc23)[C@H](O)C1 [Flavopiridol]
Inhibitory potency CDK2 [1]: +++
serine phosphorylation of CHI3L1 [7]: blocked
ability of CHI3L1 to stimulate ACE2 mRNA accumulation ([8]; Calu-3 cells transfected with full length CHI3L1 cDNA, flavopiridol 25 nM): potently inhibited
levels of basal ACE2 expression ([8]; Calu-3 cells, empty vector (pcDNA), flavopiridol 25 nM vs vehicle): diminished
basal and CHI3L1-stimulated expression of CTSL [8, 15]: potently decreased
basal and CHI3L1-stimulated expression of FURIN [8, 15]: potently decreased
basal and CHI3L1-stimulated expression of TMPRSS2 [8, 15]: potently decreased
Inhibitory potency CDK6 [3]: ++
Inhibitory potency CDK1 [4]: +++
Inhibitory potency CDK4 [5]: +++
Inhibitory potency CDK7 [6]: +

CC(C)c1c2cc(-c3ccnc(NC4CCC(NC5CCOCC5)CC4)n3)ccc2nn1C (stereo not drawn) [LY2857785]
Inhibitory potency CDK9 [9]: +++
Inhibitory potency CDK7 [6]: +
Inhibitory potency CDK8 [10]: +++

rhCHI3L1: recombinant human CHI3L1 from a commercial source (R&D Inc.) or generated at Brown University
levels of mRNA encoding ACE2 [11]: significantly upregulated
levels of mRNA encoding CTSL [11]: significantly upregulated
levels of mRNA encoding TMPRSS2 [11]: significantly upregulated
levels of mRNA encoding ACE2 [12]: significantly upregulated
levels of mRNA encoding CTSL [12]: significantly upregulated
levels of mRNA encoding FURIN [12]: significantly upregulated
levels of mRNA encoding TMPRSS2 [12]: significantly upregulated
levels of mRNA encoding ACE2 ([13]; rhCHI3L1 0, 250 or 500 ng/mL): significantly upregulated
levels of mRNA encoding CTSL ([13]; rhCHI3L1 0, 250 or 500 ng/mL): significantly upregulated
levels of mRNA encoding TMPRSS2 ([13]; rhCHI3L1 0, 250 or 500 ng/mL): significantly upregulated
levels of mRNA encoding ACE2 ([13]; rhCHI3L1 500 ng/mL, vs vehicle): significantly upregulated
levels of mRNA encoding cathepsin L (CTSL) ([13]; rhCHI3L1 500 ng/mL, vs vehicle): significantly upregulated
cellular integration of S proteins (GFP expression) [14]: stimulated
